Source: ChEMBL document CHEMBL1201862, “PubChem BioAssay data set” (2004)
Active and inactive are the calls of the source.

Tests used:
[1] = biological target: T1, Tyrosine-protein phosphatase non-receptor type 7 (Homo sapiens, UniProt P35236); assay: inhibitors of human HePTP phosphatase, […], biochemical, absorbance, leukemia target (AID 521); type: functional
T1 sequence (P35236 whole entry): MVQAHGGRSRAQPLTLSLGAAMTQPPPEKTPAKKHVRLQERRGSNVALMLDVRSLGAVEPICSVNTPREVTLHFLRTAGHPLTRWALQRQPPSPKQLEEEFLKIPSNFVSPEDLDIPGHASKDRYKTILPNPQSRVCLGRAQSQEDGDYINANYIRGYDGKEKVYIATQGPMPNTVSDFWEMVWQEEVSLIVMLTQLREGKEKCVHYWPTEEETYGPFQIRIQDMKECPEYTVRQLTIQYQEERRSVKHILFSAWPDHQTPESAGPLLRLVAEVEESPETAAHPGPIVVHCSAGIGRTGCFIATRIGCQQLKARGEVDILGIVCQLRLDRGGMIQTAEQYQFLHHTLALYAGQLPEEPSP

[2] = cells; type: functional, cell-based
[3] = cells; type: functional, cell-based; remark: listed apart in the source
[4] = cells; type: functional, cell-based; remark: listed apart in the source
[5] = test system: BJ; assay: cells; type: functional, cell-based; conditions: Homo sapiens
[6] = biological target: T2, Nuclear receptor subfamily 0 group B member 1 (Homo sapiens, UniProt P51843); type: functional, cell-based;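 also: HEK293T cells transfected with SF-1 and DAX-1 plus StAR promoter luciferase reporter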
T2 sequence (P51843 whole entry): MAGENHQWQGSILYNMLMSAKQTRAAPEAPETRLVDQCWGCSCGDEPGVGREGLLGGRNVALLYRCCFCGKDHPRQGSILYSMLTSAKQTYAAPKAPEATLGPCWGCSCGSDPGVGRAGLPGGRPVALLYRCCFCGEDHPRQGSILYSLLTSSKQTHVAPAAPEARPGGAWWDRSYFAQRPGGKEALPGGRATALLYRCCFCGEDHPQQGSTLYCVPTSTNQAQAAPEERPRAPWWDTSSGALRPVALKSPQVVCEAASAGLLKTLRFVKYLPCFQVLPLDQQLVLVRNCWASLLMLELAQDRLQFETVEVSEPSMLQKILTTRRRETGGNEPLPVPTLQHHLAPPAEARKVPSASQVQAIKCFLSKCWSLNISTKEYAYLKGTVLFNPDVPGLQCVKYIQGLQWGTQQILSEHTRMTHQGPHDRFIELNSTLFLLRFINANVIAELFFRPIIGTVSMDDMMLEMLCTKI

[7] = cytotoxicity toward DRD oncogenic fibroblasts, dose response, cell-based, non-viral oncogenic, luminescence (AID 1934); type: functional; conditions: Homo sapiens
[8] = Luminescence-based dose response cell-based high throughput screening assay for cytotoxic compounds using the IEC-6 intestinal epithelial cell line. [Related pubchem assays: 1858 (Summary AID.), 1825 (Counterscreen.), 1907 (Confirmation screen.)]; type: functional
[9] = biological target: Peroxisome proliferator-activated receptor gamma/Nuclear receptor corepressor 2 (Homo sapiens, UniProt P37231+Q9Y618); assay: Counterscreen for NR2E3 inverse agonists: TR-FRET-based biochemical high throughput dose response assay to identify inverse agonists of the interaction between peroxisome proliferator-activated receptor gamma (PPARg) and nuclear receptor co-repressor 2 (NCOR2).; type: functional
[10] = biological target: Photoreceptor-specific nuclear receptor (Homo sapiens, UniProt Q9Y5X4); assay: NR2E3 inverse agonists, dose response, biochemical, TR-FRET (AID 463256); type: functional
[11] = test system: Vero; assay: cells; type: functional; conditions: Chlorocebus sabaeus
[12] = test system: BJ; assay: cytotoxicity toward BJ-TERT-LT-ST fibroblasts, dose response, cell-based, RAS-independent, luminescence (AID 1935); type: functional; conditions: Homo sapiens;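 also: BJ fibroblasts immortalized with TERT plus LT and ST oncogenes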
[13] = test system: Vero; assay: host cell cytotoxicity of antiviral hits, dose response, cytotoxicity control for West Nile virus antiviral project, secondary assay (AID 1650); type: functional; conditions: Chlorocebus sabaeus
[14] = test system: Vero; assay: cells; type: functional, cell-based; conditions: Chlorocebus sabaeus
[15] = test system: BJ; assay: cytotoxicity toward BJ-TERT fibroblasts, dose response, cell-based, RAS-independent, luminescence (AID 1933); type: functional; conditions: Homo sapiens
[16] = test system: H4; assay: Luminescence Cell-Based Dose Response HTS to Identify Activators of 5'UTR Stem-Loop Driven Prion Protein mRNA Translation in H4 Neuroglioblastoma Cells. [Related pubchem assays: 1829 (Project Summary), 1814 (Primary HTS)]; type: functional; conditions: Homo sapiens
[17] = Luminescence Cell-Based Dose Confirmation HTS to Identify Activators of 5'UTR Stem-Loop Driven Alpha-Synuclein mRNA Translation in H4 Neuroglioblastoma Cells. [Related pubchem assays: 1829 (Project Summary), 1814 (Primary HTS)]; type: functional
[18] = test system: HeLa; assay: HeLa cell cytotoxicity, dose response, cytotoxicity control for MITF activator project, CellTiter-Glo luminescence, cherry-pick samples (AID 540259); type: functional, cell-based; conditions: Homo sapiens
[19] = Luminescence Cell-Based Dose Response to Identify Activators of Luciferase Translation or Activity in H4-C Neuroglioblastoma Cells. [Related pubchem assays: 1829 (Project Summary), 1814 (Primary HTS)]; type: functional
[20] = Luminescence Cell-Based Dose Response HTS to Identify Activators of Luciferase Translation or Activity in H4 […] Cells. [Related pubchem assays: 1829 (Project Summary), 1814 (Primary HTS)]; type: functional
[21] = Luminescence Cell-Based Dose Confirmation to Identify Activators of 5'UTR Stem-Loop Driven Alpha-Synuclein mRNA Translation in H4 Neuroglioblastoma Cells. [Related pubchem assays: 1829 (Project Summary), 1814 (Primary HTS)]; type: functional
[22] = biological target: T3, Protein skinhead-1 (Caenorhabditis elegans, UniProt P34707); type: functional
T3 sequence (P34707 whole entry): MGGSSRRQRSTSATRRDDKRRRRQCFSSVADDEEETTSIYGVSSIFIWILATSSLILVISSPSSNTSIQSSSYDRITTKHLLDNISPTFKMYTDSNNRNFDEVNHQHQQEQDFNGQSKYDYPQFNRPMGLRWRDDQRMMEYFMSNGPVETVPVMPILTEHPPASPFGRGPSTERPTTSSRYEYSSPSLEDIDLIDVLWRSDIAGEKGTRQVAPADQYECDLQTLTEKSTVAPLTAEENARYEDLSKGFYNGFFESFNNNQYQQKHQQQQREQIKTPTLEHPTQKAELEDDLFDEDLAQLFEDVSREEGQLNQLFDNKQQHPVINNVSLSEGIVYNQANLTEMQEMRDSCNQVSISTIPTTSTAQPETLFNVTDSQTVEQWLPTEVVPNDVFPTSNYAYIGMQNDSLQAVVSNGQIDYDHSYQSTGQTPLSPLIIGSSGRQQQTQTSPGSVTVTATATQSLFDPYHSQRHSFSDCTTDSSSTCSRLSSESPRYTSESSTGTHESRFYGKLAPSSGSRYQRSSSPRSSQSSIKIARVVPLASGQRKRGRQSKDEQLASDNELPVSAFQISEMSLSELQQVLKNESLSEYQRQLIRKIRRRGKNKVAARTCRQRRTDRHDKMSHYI

[23] = Luminescence Cell-Based Dose Response to Identify Activators of 5'UTR Stem-Loop Driven Prion Protein mRNA Translation in H4-C Neuroglioblastoma Cells. [Related pubchem assays: 1829 (Project Summary), 1814 (Primary HTS)]; type: functional
[24] = biological target: T4, Trace amine-associated receptor 1 (Homo sapiens, UniProt Q96RJ0); assay: Counterscreen for agonists of the human trace amine associated receptor 1 (hTAAR1): Fluorescence-based cell-based high throughput dose response assay to identify hTAAR1 agonist that also desensitize TAAR1 receptor response.; type: functional
T4 sequence (Q96RJ0 whole entry): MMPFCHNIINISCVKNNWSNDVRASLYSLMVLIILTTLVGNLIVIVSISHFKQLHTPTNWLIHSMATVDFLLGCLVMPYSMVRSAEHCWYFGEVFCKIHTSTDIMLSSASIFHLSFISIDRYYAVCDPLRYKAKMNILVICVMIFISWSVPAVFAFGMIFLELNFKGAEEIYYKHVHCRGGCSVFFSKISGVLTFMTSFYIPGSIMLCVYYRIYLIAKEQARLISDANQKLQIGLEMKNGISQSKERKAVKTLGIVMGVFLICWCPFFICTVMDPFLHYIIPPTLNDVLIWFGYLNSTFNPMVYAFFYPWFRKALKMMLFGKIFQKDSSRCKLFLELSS

[25] = cells
[26] = biological target: T4, Trace amine-associated receptor 1; assay: Fluorescence-based cell-based high throughput dose response assay to identify agonists of the human trace amine associated receptor 1 (TAAR1).; type: functional
[27] = cells; type: functional, cell-based; remark: listed apart in the source
[28] = cells; type: functional, cell-based; remark: listed apart in the source
[29] = inhibitors of intracellular T. cruzi replication, confirmation, NIH3T3 host cells, beta-gal luminescence (AID 2044); type: functional, cell-based;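 also: intracellular parasites grown in NIH/3T3 mouse fibroblasts as host cells; luminescent beta-galactosidase reporter signal from transgenic T. cruzi replicating inside host cells; inhibitors lower the luminescence signal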
[30] = cytotoxicity toward NIH3T3 fibroblasts, dose response, counter-screen, cell-based, ATP luminescence, mouse fibroblasts (AID 2010); type: functional;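 also: cells exposed to compound for about 90 hours before reading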

Chain of Peroxisome proliferator-activated receptor gamma/Nuclear receptor corepressor 2 (P37231 whole entry): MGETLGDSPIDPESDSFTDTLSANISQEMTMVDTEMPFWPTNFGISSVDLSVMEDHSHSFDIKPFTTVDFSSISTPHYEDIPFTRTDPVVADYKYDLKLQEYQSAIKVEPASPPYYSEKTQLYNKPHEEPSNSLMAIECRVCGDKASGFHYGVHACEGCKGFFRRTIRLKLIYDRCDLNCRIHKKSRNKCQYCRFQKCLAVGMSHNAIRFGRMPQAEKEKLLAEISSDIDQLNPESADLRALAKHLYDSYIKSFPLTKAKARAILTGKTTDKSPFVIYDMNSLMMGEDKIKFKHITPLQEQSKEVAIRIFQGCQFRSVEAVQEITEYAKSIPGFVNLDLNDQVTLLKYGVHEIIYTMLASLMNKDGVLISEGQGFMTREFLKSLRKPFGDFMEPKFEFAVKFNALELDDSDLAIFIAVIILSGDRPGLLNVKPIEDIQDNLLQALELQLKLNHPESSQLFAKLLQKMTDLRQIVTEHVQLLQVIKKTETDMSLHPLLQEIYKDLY
Chain of Peroxisome proliferator-activated receptor gamma/Nuclear receptor corepressor 2 (Q9Y618 whole entry): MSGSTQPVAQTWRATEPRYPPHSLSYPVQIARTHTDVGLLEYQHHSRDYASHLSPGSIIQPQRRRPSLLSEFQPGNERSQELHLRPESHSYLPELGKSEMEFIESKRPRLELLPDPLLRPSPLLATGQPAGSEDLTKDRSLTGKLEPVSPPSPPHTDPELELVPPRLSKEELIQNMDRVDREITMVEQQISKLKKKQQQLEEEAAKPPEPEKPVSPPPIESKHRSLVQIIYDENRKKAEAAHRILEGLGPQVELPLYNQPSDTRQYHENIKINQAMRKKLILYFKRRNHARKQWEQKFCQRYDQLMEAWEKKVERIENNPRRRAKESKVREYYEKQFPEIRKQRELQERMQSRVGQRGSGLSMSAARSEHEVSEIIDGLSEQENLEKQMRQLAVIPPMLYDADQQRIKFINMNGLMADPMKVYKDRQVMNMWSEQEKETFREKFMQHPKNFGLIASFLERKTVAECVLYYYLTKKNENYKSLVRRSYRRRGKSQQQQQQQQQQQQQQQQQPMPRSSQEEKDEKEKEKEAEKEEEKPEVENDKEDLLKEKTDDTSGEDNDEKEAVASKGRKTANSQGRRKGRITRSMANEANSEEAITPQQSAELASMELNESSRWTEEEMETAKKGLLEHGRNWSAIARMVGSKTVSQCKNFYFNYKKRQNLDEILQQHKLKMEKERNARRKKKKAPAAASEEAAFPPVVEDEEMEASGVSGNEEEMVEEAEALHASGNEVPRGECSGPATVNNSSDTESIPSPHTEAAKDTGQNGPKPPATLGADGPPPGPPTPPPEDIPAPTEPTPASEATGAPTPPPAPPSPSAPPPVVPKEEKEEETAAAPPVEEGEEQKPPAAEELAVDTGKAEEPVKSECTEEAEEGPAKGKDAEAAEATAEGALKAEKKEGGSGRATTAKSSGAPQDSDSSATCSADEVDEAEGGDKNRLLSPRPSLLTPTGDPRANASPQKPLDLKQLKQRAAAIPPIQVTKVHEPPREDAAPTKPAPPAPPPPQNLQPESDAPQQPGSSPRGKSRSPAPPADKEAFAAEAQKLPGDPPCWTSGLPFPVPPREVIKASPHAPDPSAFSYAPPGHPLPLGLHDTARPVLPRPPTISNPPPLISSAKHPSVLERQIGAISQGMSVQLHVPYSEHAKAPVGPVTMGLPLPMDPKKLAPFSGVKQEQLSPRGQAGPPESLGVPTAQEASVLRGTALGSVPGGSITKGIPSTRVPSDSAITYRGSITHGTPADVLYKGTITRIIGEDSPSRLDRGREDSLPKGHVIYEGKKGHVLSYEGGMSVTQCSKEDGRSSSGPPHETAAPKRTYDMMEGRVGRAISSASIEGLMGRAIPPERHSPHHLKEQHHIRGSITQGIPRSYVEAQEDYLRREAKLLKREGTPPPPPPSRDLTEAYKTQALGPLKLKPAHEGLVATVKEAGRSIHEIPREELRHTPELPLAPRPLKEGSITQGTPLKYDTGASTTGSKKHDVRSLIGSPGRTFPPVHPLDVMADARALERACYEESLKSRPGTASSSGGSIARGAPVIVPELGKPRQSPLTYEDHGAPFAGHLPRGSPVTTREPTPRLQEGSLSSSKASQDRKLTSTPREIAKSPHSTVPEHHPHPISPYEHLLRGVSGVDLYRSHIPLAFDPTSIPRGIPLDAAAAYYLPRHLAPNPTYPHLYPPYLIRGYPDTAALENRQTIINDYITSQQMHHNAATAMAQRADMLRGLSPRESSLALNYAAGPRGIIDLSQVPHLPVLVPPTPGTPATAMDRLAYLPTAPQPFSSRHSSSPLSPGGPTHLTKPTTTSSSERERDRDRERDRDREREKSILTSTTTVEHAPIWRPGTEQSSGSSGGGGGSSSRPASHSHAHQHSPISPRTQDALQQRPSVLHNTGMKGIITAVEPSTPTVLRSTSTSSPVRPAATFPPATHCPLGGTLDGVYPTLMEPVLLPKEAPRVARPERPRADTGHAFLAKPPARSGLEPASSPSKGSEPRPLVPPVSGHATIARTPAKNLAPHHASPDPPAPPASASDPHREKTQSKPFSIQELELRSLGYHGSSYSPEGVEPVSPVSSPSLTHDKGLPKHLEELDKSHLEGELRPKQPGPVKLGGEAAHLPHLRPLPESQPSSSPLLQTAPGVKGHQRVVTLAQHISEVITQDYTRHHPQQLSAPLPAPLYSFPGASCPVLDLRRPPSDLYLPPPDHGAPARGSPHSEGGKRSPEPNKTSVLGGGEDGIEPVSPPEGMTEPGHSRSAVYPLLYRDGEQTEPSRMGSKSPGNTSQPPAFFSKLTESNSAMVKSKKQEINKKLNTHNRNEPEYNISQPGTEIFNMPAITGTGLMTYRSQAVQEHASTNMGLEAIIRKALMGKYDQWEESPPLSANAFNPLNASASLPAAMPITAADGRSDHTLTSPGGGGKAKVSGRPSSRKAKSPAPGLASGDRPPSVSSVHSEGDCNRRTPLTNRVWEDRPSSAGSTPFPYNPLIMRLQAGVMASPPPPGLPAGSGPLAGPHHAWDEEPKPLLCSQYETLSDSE
Chain of Photoreceptor-specific nuclear receptor (Q9Y5X4 whole entry): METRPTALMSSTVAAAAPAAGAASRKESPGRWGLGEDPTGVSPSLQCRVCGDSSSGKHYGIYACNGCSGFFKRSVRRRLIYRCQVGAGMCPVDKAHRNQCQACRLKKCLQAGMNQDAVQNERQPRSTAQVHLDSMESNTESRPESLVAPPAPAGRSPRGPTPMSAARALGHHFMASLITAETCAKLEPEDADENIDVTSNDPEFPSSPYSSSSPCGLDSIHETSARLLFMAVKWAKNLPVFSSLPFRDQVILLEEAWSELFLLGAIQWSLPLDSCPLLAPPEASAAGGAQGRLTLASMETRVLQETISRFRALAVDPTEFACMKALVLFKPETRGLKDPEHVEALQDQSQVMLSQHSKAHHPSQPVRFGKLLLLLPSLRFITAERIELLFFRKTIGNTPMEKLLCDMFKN

With `CC1(C)N(O)CC(c2cccs2)=[N+]1[O-]` the IC50 [1] was > 100000 nM (not active).

With `O=C(N/N=C/C(Br)=C\c1ccccc1)c1[nH]nc2c1CCC2` the EC50 [2] was > 350000 nM (not active), the EC50 [3] was 17800 nM (active) and the IC50 [4] was > 67500 nM (inactive). The EC50 [5] was 223 nM (inconclusive), the IC50 [6] was > 834 nM (active) and the EC50 [7] was 300 nM (inconclusive). The IC50 [8] was 183 nM (active).

For `Cc1cccc(OCc2nnc(SCC(=O)NC3CCCC3)n2C)c1`, the IC50 [9] was 4790 nM (active) and the IC50 [10] was 6660 nM (active).

For `C[C@H]1O[C@@H](OC2CC[C@]3(C=O)[C@H]4CC[C@]5(C)[C@@H](C6=CC(=O)OC6)CC[C@]5(O)[C@@H]4CC[C@]3(O)C2)CC2OC(C)(C)OC21` (some centres not stated), the CC50 [11] was 100 nM (active), the EC50 [12] was 1280 nM (inconclusive) and the CC50 [13] was < 39 nM (active). The EC50 [5] was 1370 nM (inconclusive), the EC50 [7] was 1140 nM (active) and the IC50 [14] was < 50 nM (active). For the same compound, the EC50 [15] was 1010 nM (active).

For `O=C(Nc1ccccc1)O/N=C/c1ccc(F)cc1`, the EC50 [16] was 8270 nM (active), the EC50 [17] was < 100 nM (active) and the AC50 [18] was 54200 nM (active). For the same compound, the EC50 [19] was 372 nM (active), the EC50 [20] was < 100 nM (active) and the EC50 [21] was 321 nM (active). The IC50 [22] was > 100000 nM (inactive) and the EC50 [23] was 477 nM (active).

In the case of `N=C(N)N/N=C/c1ccccc1`, the IC50 [24] is reported as 1670 nM (active), the EC50 [25] is reported as 112 nM (active) and the EC50 [26] is reported as > 3320 nM (active). For the same compound, the EC50 [27] was > 29900 nM (inactive), the IC50 [28] was > 29900 nM (inactive) and the EC50 [29] was < 100 nM (active). For the same compound, the EC50 [30] was > 60000 nM (not active).
